{
  "source": "ChEMBL document CHEMBL1201862",
  "about": "“PubChem BioAssay data set” (2004)",
  "key": {"[1]": {"test": "inhibitors of firefly luciferase expression or activity, dose response, H4 neuroglioma cells, luminescence (AID 1990)", "assay_type": "functional, cell-based"}, "[2]": {"test": "cytotoxicity toward DRD oncogenic fibroblasts, dose response, cell-based, non-viral oncogenic, luminescence (AID 1934)", "assay_type": "functional", "settings": "Homo sapiens"}, "cells": {"test": "cells", "assay_type": "functional, cell-based"}, "BJ [3]": {"system": "BJ", "test": "cells", "assay_type": "functional, cell-based", "settings": "Homo sapiens"}, "[4]": {"test": "Luminescence Cell-Based Dose Response HTS to Identify Inhibitors of Luciferase Translation or Activity in H4-C Neuroglioblastoma Cells. [Related pubchem assays: 1813 (Primary HTS), 1827 (Project Summary)]", "assay_type": "functional"}, "[5]": {"test": "inhibitors of SNCA 5'UTR-driven translation, confirmation, luminescence, H4 neuroglioblastoma cells, dose confirmation (AID 2454);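 note: potency for inhibition of the luciferase signal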", "assay_type": "functional, cell-based"}, "[6]": {"test": "Luminescence Cell-Based Dose Confirmation HTS to Identify Inhibitors of 5'UTR Stem-Loop Driven Alpha-Synuclein mRNA Translation in H4 Neuroglioblastoma Cells. [Related pubchem assays: 1827 (Project Summary), 1813 (Primary HTS)]", "assay_type": "functional"}, "[7]": {"test": "cytotoxicity in HEK-293T cells, dose response, cytotoxicity control for TCR NF-kB inhibitor project, luminescence, T-cell screen hits (AID 489026);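 note: cells exposed to compound about 14 hours before the viability readout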", "assay_type": "functional, cell-based"}, "[8]": {"test": "Luminescence Cell-Based Dose HTS Response to Identify Inhibitors of 5'UTR Stem-Loop Driven Prion Protein mRNA Translation in H4-C Neuroglioblastoma Cells. [Related pubchem assays (depositor defined):AID1814, AID1827]", "assay_type": "functional"}, "[9]": {"test": "luciferase reporter signal reduction – luminescence, H4-C neuroglioblastoma cells, dose response (AID 2458);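 note: H4 neuroglioblastoma cells stably carrying a luciferase reporter gene fusion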", "assay_type": "functional, cell-based"}, "[10]": {"test": "Luminescence Cell-Based Dose Response HTS to Identify Activators of 5'UTR Stem-Loop Driven Prion Protein mRNA Translation in H4-C Neuroglioblastoma Cells. [Related pubchem assays: 1829 (Project Summary), 1814 (Primary HTS)]", "assay_type": "functional"}, "[11]": {"test": "Luminescence Cell-Based Dose Retest to Confirm Activators of 5'UTR Stem-Loop Driven Alpha-Synuclein mRNA Translation in H4 Neuroglioblastoma Cells. [Related pubchem assays (depositor defined):AID1813, AID1829]", "assay_type": "functional"}, "[12]": {"test": "inhibitors of SNCA 5'UTR-driven reporter translation, confirmation, H4 neuroglioma cells, luminescence (AID 1988)", "assay_type": "functional, cell-based"}, "BJ [13]": {"system": "BJ", "test": "cytotoxicity toward BJ-TERT-LT-ST fibroblasts, dose response, cell-based, RAS-independent, luminescence (AID 1935);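 note: BJ fibroblasts immortalized with TERT plus LT and ST oncogenes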", "assay_type": "functional", "settings": "Homo sapiens"}, "[14]": {"test": "Luminescence Cell-Based Dose Response HTS to Identify Activators of Luciferase Translation or Activity in H4-C Neuroglioblastoma Cells. [Related pubchem assays: 1829 (Project Summary), 1814 (Primary HTS)]", "assay_type": "functional"}, "[15]": {"test": "Luminescence Cell-Based Dose Response HTS to Identify Inhibitors of 5'UTR Stem-Loop Driven Prion Protein mRNA Translation in H4 Neuroglioblastoma Cells. [Related pubchem assays: 1827 (Project Summary), 1813 (Primary HTS)]", "assay_type": "functional"}, "Cytochrome P450 1A2": {"biological_target": "T1, Cytochrome P450 1A2 (Homo sapiens, UniProt P05177)", "T1 sequence (P05177 whole entry)": "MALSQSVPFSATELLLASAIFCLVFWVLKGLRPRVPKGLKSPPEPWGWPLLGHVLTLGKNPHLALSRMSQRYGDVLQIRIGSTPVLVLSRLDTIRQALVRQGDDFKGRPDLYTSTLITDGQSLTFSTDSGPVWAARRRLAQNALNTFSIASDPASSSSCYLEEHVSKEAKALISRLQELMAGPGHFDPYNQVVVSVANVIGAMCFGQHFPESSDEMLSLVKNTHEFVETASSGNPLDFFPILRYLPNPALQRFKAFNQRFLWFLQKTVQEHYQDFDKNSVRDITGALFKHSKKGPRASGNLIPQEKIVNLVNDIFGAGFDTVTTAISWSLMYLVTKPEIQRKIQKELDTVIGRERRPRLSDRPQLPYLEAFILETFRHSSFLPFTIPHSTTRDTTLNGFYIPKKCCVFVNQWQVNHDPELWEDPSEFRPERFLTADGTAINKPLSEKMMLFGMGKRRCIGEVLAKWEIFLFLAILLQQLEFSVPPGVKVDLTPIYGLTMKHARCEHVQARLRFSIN"}, "[16]": {"biological_target": "Peroxisome proliferator-activated receptor gamma/Nuclear receptor coactivator 2 (Homo sapiens, UniProt P37231)", "sequence (P37231 whole entry)": "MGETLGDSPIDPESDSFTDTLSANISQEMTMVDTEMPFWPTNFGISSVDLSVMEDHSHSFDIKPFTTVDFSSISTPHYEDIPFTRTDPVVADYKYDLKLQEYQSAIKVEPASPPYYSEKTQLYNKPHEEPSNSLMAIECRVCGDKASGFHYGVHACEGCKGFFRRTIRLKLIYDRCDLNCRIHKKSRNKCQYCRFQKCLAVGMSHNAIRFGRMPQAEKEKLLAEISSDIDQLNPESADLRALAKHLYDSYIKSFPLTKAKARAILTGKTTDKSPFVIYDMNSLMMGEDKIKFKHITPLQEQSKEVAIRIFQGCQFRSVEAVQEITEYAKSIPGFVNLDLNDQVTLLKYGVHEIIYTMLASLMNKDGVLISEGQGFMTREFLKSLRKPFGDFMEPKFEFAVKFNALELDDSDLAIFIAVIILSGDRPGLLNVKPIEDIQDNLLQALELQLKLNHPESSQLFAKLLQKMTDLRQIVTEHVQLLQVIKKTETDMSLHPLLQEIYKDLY", "sequence (Q15596 whole entry, further chain)": "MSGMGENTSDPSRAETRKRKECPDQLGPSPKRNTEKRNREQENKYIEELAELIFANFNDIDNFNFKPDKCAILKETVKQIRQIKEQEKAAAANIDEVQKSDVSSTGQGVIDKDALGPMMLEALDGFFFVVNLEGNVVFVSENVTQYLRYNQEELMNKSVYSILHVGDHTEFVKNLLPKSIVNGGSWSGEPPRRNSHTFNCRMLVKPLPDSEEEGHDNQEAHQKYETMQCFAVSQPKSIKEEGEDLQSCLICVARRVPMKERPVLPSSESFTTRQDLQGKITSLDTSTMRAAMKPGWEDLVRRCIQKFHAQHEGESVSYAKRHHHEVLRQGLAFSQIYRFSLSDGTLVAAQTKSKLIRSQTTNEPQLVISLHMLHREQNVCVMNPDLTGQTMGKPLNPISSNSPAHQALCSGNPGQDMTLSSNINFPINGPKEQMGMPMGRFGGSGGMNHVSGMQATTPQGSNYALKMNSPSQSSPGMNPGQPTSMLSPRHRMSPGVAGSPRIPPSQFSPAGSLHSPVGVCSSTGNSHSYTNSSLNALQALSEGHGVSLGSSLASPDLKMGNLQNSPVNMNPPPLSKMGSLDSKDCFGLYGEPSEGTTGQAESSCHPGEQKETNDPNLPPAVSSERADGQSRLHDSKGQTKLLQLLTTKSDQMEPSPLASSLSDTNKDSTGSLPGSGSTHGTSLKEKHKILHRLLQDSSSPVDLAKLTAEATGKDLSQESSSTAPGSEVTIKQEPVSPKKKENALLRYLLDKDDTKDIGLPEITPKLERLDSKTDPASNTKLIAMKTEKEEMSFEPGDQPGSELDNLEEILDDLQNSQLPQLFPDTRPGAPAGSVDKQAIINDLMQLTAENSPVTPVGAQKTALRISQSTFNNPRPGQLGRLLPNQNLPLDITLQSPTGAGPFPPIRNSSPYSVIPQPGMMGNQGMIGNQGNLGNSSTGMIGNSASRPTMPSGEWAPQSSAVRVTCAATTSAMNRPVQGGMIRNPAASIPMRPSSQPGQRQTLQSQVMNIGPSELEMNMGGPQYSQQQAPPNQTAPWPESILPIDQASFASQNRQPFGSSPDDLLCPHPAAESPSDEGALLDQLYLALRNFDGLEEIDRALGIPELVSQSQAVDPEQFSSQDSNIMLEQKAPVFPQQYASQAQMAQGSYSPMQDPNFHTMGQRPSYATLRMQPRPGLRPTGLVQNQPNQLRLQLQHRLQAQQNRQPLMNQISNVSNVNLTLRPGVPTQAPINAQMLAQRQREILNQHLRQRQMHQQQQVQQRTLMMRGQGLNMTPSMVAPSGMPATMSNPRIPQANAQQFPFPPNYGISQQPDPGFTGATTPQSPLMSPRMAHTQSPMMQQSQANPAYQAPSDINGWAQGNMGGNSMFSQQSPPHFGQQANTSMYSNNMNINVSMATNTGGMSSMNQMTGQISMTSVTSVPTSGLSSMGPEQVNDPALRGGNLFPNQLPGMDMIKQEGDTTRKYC", "test": "(§1) TR-FRET dose response biochemical High Throughput Screening assay for agonists of the steroid receptor coactivator 2 (SRC-2) recruitment by the peroxisome proliferator-activated receptor gamma (PPAR gamma): non-selective agonists. [Related pubchem assays: 1297, 1032 ]", "assay_type": "functional"}, "Cytochrome P450 2C9": {"biological_target": "Cytochrome P450 2C9 (Homo sapiens, UniProt P11712)", "sequence (P11712 whole entry)": "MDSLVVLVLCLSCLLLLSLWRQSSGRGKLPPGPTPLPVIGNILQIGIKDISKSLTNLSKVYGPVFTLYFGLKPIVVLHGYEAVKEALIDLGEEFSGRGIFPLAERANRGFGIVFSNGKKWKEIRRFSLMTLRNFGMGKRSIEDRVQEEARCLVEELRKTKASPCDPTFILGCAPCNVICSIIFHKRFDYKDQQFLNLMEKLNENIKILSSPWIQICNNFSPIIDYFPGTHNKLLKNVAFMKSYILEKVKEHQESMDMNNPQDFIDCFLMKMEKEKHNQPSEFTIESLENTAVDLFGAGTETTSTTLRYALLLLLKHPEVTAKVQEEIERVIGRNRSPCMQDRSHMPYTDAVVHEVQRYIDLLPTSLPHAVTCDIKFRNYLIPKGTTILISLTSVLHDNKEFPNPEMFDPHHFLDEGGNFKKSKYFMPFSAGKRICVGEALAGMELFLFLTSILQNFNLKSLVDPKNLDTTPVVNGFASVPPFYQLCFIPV"}, "[17]": {"biological_target": "Peroxisome proliferator-activated receptor gamma/Nuclear receptor coactivator 1 (Homo sapiens, UniProt P37231)", "test": "as §1, with “1 (SRC-1)” for “2 (SRC-2)”, “assays (depositor defined):AID1300, AID1808, AID504735, AID631]” for “assays: 1297, 1032 ]”", "assay_type": "protein assay"}, "[18]": {"biological_target": "Peroxisome proliferator-activated receptor gamma/Nuclear receptor coactivator 3 (Homo sapiens, UniProt P37231)", "test": "as §1, with “3 (SRC-3)” for “2 (SRC-2)”, “1301 (Confirmation screen.), 1048 (Primary screen.)]” for “1297, 1032 ]”", "assay_type": "functional"}, "SUMO-activating enzyme [19]": {"biological_target": "T2, SUMO-activating enzyme (Homo sapiens, UniProt Q9UBT2)", "T2 sequence (Q9UBE0 whole entry)": "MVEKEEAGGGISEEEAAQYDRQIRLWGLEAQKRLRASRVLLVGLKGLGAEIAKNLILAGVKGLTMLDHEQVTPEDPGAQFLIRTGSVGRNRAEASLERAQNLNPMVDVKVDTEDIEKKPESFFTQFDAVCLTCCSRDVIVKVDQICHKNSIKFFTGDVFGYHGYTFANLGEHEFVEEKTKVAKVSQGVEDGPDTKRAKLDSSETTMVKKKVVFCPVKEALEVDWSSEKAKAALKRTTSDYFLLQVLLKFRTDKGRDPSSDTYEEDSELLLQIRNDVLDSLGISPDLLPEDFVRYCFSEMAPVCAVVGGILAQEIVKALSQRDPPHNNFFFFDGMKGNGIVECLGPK", "T2 sequence (Q9UBT2 whole entry)": "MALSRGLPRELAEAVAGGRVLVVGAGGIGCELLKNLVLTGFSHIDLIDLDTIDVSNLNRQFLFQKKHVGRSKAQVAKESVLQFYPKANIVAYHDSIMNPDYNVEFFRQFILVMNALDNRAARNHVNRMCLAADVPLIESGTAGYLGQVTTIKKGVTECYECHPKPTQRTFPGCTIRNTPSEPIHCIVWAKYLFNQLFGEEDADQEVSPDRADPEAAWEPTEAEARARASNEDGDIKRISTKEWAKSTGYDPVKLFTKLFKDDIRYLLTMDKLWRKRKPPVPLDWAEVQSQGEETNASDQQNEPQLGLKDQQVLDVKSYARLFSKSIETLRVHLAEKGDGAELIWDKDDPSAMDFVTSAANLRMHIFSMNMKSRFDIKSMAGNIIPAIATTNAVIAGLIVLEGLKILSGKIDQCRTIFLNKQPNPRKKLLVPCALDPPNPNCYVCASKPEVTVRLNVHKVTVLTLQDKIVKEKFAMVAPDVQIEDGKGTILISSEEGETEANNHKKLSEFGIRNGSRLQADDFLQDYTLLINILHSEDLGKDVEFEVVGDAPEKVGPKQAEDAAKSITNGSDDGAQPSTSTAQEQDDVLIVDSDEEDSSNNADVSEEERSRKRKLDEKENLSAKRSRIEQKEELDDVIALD", "test": "SUMOylation inhibitor hit validation, confirmation, SUMOylation inhibitor project, biochemical, AlphaScreen (AID 2018)", "assay_type": "functional"}, "SUMO-activating enzyme [20]": {"biological_target": "T2, SUMO-activating enzyme", "test": "inhibitors of in vitro SUMOylation cascade, primary screen, biochemical, HTRF, uHTS (AID 2006)", "assay_type": "protein-complex assay"}},
  "note": "Active and inactive are the calls of the source.",
  "data": [
    {"smiles": "COc1cccc(N2CCN(C(=O)c3ccc(C[S+]([O-])c4ccccc4C)o3)CC2)c1", "note": "(stereo not drawn)", "values": [
      {"measurement": "EC50", "setting": "[1]", "value": "7.05 µM (active)"},
      {"measurement": "EC50", "setting": "[2]", "value": "1.59 µM (active)"},
      {"measurement": "EC50", "setting": "cells", "value": "2.01 µM (active)"},
      {"measurement": "EC50", "setting": "BJ [3]", "value": "35 µM (active)"},
      {"measurement": "EC50", "setting": "[4]", "value": "0.946 µM (active)"},
      {"measurement": "EC50", "setting": "[5]", "value": "> 12 µM (not active)"},
      {"measurement": "EC50", "setting": "[6]", "value": "22.5 µM (active)"},
      {"measurement": "IC50", "setting": "[7]", "value": "> 80 µM (inactive)"},
      {"measurement": "EC50", "setting": "[8]", "value": "0.325 µM (active)"},
      {"measurement": "EC50", "setting": "[9]", "value": "1.06 µM (active)"},
      {"measurement": "EC50", "setting": "[10]", "value": "0.325 µM (inconclusive)"},
      {"measurement": "EC50", "setting": "[11]", "value": "22.5 µM (inconclusive)"},
      {"measurement": "EC50", "setting": "[12]", "value": "< 0.1 µM (active)"},
      {"measurement": "EC50", "setting": "BJ [13]", "value": "1.2 µM (active)"},
      {"measurement": "EC50", "setting": "[14]", "value": "0.946 µM (inconclusive)"},
      {"measurement": "EC50", "setting": "[15]", "value": "9.12 µM (active)"}
    ]},
    {"smiles": "Cn1c(=O)cc(SCC(=O)NCCN2CCN(c3ccccc3F)CC2)c2cc(Cl)ccc21", "values": [
      {"measurement": "AC50", "setting": "Cytochrome P450 1A2", "value": "39.8 µM (inconclusive)"},
      {"measurement": "EC50", "setting": "[16]", "value": "7.9 µM (active)"},
      {"measurement": "AC50", "setting": "Cytochrome P450 2C9", "value": "inconclusive"},
      {"measurement": "EC50", "setting": "[17]", "value": "33.2 µM (inactive)"},
      {"measurement": "EC50", "setting": "[18]", "value": "> 79.4 µM (not active)"}
    ]},
    {"smiles": "COc1cccc2c(SCC(=O)N/N=C/c3ccc(O)cc3O)cc(C)nc12", "values": [
      {"measurement": "IC50", "setting": "SUMO-activating enzyme [19]", "value": "3.17 µM (active)"},
      {"measurement": "IC50", "setting": "SUMO-activating enzyme [20]", "value": "28.6 µM (active)"}
    ]}
  ]
}
